pEC50, pIC50: −log10 of the molar value.
Tests used:
MDA-PANC-28 = experiment: Cell growth inhibition, MDA-PANC-28 (MTT); format: cell-based; details: MDA-PANC-28, 5 days; read-out: EC50, antiproliferative activity
Description: (§1) The anti-proliferation assays for non-breast cancer cells were done using a previously developed assay. In brief, for Kasumi-1 cells, […] were added into 96-well plates and cultured with increasing concentrations of a compound in RPMI-1640 medium supplemented with 20% fetal bovine serum and penicillin (100 U/mL) and streptomycin (100 µg/mL) at 37° C. in a 5% CO2 atmosphere with 100% humidity. For solid tumor cells, 10^5 cells per well were added into 96-well plates and cultured in Dulbecco’s Modified Eagle’s Medium (DMEM) supplemented with 10% fetal bovine serum and penicillin (100 U/mL) and streptomycin (100 µg/mL) overnight. Upon addition of increasing concentrations of a compound, cells were incubated for 5 days. Cell viability was assessed by using an XTT assay kit (Roche) for leukemia cells or an MTT assay (Sigma) for attachment cells. For the breast cancer MCF-7 cells, culture and inhibition assays were performed according to our previous methods in Ref. 25 and 26. Compound EC50 values were calculated from dose response curves using Prism 5.0.

PANC-1 = experiment: Cell growth inhibition, PANC-1 (MTT); format: cell-based; details: PANC-1, 5 days; read-out: EC50, antiproliferative activity
Description: as §1

Myst3 = target: T1, Myst3 (Homo sapiens, UniProt Q92794); experiment: Myst3 HAT inhibition assay; format: biochemical
T1 construct: made in house
T1 sequence (Q92794 whole entry): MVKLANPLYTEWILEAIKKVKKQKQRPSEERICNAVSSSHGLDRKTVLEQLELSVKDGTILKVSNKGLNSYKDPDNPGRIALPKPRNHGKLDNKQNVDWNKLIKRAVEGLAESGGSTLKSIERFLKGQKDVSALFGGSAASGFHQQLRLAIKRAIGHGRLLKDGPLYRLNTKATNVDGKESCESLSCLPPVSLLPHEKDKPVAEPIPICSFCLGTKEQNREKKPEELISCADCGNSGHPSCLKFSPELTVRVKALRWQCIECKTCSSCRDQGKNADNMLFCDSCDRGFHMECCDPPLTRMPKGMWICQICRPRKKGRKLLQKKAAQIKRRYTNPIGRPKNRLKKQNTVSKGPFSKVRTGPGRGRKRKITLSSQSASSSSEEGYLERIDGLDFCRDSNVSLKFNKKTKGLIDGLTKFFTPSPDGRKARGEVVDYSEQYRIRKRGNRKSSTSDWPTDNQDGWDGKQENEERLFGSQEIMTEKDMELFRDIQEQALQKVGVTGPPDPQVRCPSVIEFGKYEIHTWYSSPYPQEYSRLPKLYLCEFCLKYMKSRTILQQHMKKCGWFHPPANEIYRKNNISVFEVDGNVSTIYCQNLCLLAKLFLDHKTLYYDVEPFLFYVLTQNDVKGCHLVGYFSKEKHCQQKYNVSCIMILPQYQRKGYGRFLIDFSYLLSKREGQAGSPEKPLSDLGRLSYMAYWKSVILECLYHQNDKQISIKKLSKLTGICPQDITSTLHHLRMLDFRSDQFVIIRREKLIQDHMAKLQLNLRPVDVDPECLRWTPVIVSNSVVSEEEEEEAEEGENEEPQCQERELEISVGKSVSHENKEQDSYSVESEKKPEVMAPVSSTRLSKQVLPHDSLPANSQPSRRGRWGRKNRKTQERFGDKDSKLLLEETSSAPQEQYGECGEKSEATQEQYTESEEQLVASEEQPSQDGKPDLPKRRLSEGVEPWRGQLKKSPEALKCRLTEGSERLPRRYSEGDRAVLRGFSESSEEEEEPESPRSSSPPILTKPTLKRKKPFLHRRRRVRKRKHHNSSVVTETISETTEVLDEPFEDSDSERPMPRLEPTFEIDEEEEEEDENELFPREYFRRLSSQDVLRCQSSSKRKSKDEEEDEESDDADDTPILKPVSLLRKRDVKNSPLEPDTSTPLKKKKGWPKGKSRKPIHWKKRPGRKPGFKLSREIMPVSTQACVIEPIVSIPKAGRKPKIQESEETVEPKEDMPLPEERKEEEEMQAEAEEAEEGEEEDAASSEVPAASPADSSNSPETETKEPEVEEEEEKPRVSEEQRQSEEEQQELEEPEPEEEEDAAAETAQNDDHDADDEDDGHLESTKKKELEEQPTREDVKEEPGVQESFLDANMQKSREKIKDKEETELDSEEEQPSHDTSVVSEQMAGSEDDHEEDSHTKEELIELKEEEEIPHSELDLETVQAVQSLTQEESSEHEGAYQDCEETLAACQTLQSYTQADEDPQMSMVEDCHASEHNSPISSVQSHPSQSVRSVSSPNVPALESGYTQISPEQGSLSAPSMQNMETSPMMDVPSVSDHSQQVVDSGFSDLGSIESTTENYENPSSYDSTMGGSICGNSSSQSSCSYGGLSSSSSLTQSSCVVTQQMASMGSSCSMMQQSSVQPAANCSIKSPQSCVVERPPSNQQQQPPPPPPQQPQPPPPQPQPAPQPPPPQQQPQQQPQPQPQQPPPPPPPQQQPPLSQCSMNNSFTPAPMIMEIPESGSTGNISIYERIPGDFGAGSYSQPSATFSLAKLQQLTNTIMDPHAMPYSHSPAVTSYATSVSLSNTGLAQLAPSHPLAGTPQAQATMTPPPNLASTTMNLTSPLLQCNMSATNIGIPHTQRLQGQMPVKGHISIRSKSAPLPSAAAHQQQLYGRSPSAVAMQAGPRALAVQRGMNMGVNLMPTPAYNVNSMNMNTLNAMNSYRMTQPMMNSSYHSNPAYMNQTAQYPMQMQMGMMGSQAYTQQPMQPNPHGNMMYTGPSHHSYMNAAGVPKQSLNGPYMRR

PCAF = target: T2, PCAF (Homo sapiens, UniProt Q92831); experiment: PCAF HAT inhibition assay; format: biochemical
T2 construct: made in house
T2 sequence (Q92831 whole entry): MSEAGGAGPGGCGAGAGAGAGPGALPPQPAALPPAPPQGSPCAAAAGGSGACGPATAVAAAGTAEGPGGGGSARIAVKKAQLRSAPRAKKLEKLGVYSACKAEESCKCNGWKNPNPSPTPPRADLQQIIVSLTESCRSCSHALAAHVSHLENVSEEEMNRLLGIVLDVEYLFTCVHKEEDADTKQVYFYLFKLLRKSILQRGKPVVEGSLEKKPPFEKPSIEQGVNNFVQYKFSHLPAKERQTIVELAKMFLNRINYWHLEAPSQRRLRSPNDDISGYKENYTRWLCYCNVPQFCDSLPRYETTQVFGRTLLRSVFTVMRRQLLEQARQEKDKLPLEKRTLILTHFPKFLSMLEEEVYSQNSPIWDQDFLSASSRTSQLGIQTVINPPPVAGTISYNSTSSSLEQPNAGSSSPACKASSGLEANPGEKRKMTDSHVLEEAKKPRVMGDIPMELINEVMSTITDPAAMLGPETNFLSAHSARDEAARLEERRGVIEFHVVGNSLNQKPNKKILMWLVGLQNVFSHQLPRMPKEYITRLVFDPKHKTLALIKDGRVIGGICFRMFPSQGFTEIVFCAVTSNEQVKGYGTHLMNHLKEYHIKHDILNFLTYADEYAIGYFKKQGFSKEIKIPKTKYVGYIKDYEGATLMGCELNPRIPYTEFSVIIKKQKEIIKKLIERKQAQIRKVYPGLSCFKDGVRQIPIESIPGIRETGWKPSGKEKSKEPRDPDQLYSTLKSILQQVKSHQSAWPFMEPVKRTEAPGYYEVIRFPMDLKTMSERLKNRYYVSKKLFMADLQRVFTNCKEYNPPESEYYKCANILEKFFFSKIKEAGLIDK
From the text: (§2) Humans have three classes of histone/protein lysine acetyltransferases with distinct conserved motifs and structures, including p300/CBP, Gcn5-related N-acetyltransferase (GNAT) and MYST (MOZ, Ybf2, Sas2 and Tip60) family of HATs. […] CBP is a homolog of p300. […] PCAF (p300/CBP associating factor) is a member of the GNAT family, while Myst3 belongs to the MYST family of HATs.
(§3) The HAT domain (1195-1673) of human p300 was cloned, inserted into pGEX-KG vector and the DNA sequence was verified by sequencing. The p300-HAT expression plasmid was transformed into E. coli BL21-CodonPlus strain (Agilent) and cultured at 37° C. in LB medium containing ampicillin (50 µg/mL) and chloramphenicol (34 µg/mL). After the optical density of the bacterial culture reached ~0.9 at 600 nm, p300 HAT expression was induced by adding 300 µM isopropylthiogalactoside (IPTG) at 18° C. for 48 hours. Cells were collected, lysed, centrifuged for 20 min at 20,000 rpm. The supernatant was subjected to column chromatography with glutathione sepharose resins. The recombinant GST-p300-HAT fusion protein was obtained in ~90% purity (SDS-PAGE) by elution with 10 mM of glutathione solution, which was further purified using a Superdex 200 gel filtration column chromatography. CBP, PCAF and Myst3 HATs were obtained using similar methods.
To determine inhibitory activity, a compound with concentrations ranging from 100 nM to 10 µM was incubated with p300-HAT (10 nM) in 20 µL of 50 mM phosphate buffer (pH = 7.0) containing 0.01% Brij-35 for 10 min at 25° C. Histone H3 peptide (1-21) (20 µM) and Acetyl-CoA (1 µM ^3H—Ac—CoA and 19 µM Ac—CoA) were added to initiate the reaction. After 30 min at 25° C., the reaction was stopped by adding 6 N formic acid (5 µL). 20 µL of reaction mixture was then transferred to a small piece of P81 filter paper (Whatman) that binds histone H3 peptide. The filter paper was washed 3x with 50 mM NaHCO3, dried, and transferred into a scintillation vial containing 2 mL of scintillation cocktail. Radioactivity on the filter paper was measured with a Beckman LS-6500 scintillation counter. […]

human CBP HAT = target: T3, human CBP HAT (Homo sapiens, UniProt Q92793); experiment: CBP HAT inhibition assay; format: biochemical; details: read-out: IC50 against CBP HAT
T3 construct: made in house
T3 sequence (Q92793 1323-1700 limits assumed): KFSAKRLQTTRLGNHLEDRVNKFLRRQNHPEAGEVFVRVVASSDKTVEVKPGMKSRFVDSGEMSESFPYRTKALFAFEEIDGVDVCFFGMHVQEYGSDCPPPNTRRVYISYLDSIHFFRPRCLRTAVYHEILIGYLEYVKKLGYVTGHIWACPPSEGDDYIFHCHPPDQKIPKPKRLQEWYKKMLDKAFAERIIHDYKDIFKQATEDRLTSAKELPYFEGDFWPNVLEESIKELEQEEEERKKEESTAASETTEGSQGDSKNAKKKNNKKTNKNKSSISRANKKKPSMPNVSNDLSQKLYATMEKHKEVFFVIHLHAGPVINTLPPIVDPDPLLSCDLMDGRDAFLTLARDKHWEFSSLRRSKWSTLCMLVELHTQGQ
From the text: as §2
as §3, with “The recombinant GST-p300-HAT fusion protein was obtained in ~90% purity (SDS-PAGE) by elution with 10 mM of glutathione solution, which was further purified using a Superdex 200 gel filtration column chromatography. CBP, PCAF and Myst3 HATs were obtained using similar methods.” left out
To determine inhibitory activity, a compound with concentrations ranging from 100 nM to 10 µM was incubated with p300-HAT (10 nM) in 20 µL of 50 mM phosphate buffer (pH = 7.0) containing 0.01% Brij-35 for 10 min at 25° C. […] Radioactivity on the filter paper was measured with a Beckman LS-6500 scintillation counter. […]

MCF-7 (Tam-R) = experiment: Cell growth inhibition, tamoxifen-resistant MCF-7; format: cell-based; details: read-out: EC50, antiproliferative activity
Description: as §1

pEC50 (MDA-PANC-28): 5.55
pEC50 (PANC-1): 6.00
inhibition of Myst3 (Myst3; at 20 µM): < 10%
inhibition of Myst3 activity (in words) (Myst3; at 20 µM): did not significantly inhibit
pIC50 (Myst3; read-out: IC50 against Myst3): < 4.70
inhibition of PCAF (PCAF; at 20 µM): < 10%
inhibition of PCAF activity (in words) (PCAF; at 20 µM): did not significantly inhibit
pIC50 (PCAF; read-out: IC50 against PCAF): < 4.70
pIC50 (human CBP HAT): 5.92
pEC50 (MCF-7 (Tam-R)): 5.47
Compound: CC(C)(C)c1ccc(-c2cc(CNCC3CCNCC3)sc2-c2ccc(C(C)(C)C)cc2)cc1 [Compound 12]
